The source of these data is PubChem BioAssay (NCI).

Test systems include DU-145 prostate; NCI-H23 lung; HL-60(TB) leukemia; MOLT-4 leukemia; HT29 colon; TK-10 renal; SK-MEL-28 melanoma; A498 renal; EKVX NSCLC; MDA-MB-231 breast; NCI/ADR-RES ovarian; HCC-2998 colon; SNB-19 CNS; M14 melanoma; SK-MEL-2 melanoma; SF-295 CNS; MCF7 breast; MDA-MB-435; A549 NSCLC; K-562 leukemia.
Common to all, as to assay: NCI-60 cell line screen, 48 h

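In this assay, cells in 96-well plates receive the compound at five concentrations for 48 hours. Endpoints are linearly interpolated between the surrounding concentrations. TGI marks complete inhibition of growth.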

`CC(=O)NNc1nc(C)c(C(/C=C/c2ccc(NC(C)=O)cc2)=N/NS(=O)(=O)c2ccc(C)cc2)s1`: the TGI in the experiment with DU-145 prostate, in the experiment with NCI-H23 lung, with HL-60(TB) leukemia, in the experiment on MOLT-4 leukemia, in the experiment with HT29 colon and in the experiment with TK-10 renal was more than 100 µM each time. The TGI in the experiment with SK-MEL-28 melanoma, in the experiment with A498 renal, in the experiment on EKVX NSCLC, in the experiment on MDA-MB-231 breast, in the experiment with NCI/ADR-RES ovarian and in the experiment with HCC-2998 colon was more than 100 µM in each case. The TGI in the experiment on SNB-19 CNS, with M14 melanoma, in the experiment with SK-MEL-2 melanoma, in the experiment on SF-295 CNS, with MCF7 breast and in the experiment on MDA-MB-435 was more than 100 µM each time. In the experiment on A549 NSCLC, this compound returned a TGI of more than 100 µM.
Turning to `CC(C)(C)c1cc(C(C)(C)C)c2sc(=S)oc2c1O`, the TGI in the experiment on DU-145 prostate was 25.5 µM; with NCI-H23 lung, 18.9 µM; with K-562 leukemia, 32.9 µM; with HL-60(TB) leukemia, 33 µM; in the experiment with MOLT-4 leukemia, more than 40.8 µM; in the experiment with HT29 colon, 30.1 µM. Moreover, the TGI in the experiment with TK-10 renal turned out to be 17.2 µM; with SK-MEL-28 melanoma, 27.6 µM; in the experiment with A498 renal it was 26 µM; in the experiment on EKVX NSCLC it was 11.6 µM; in the experiment with MDA-MB-231 breast, 26.7 µM; in the experiment on NCI/ADR-RES ovarian, 24.4 µM. Also, the TGI with SNB-19 CNS came out at 27.6 µM; in the experiment on M14 melanoma, 32.4 µM; in the experiment on SK-MEL-2 melanoma, 24.3 µM; with SF-295 CNS, 23.5 µM; in the experiment on MCF7 breast it was 27.4 µM; in the experiment on MDA-MB-435, 26.8 µM. Besides, the TGI with A549 NSCLC was more than 41.3 µM.
On to `COc1ccccc1OC(=O)/C=C/c1ccccc1`, for which the TGI in the experiment with DU-145 prostate, with NCI-H23 lung, with HL-60(TB) leukemia, with MOLT-4 leukemia, in the experiment with HT29 colon and in the experiment on TK-10 renal was more than 100 µM throughout. In addition, the TGI in the experiment with SK-MEL-28 melanoma, in the experiment on A498 renal, in the experiment on EKVX NSCLC, in the experiment with MDA-MB-231 breast, in the experiment on NCI/ADR-RES ovarian and in the experiment on HCC-2998 colon was more than 100 µM each time. Further, the TGI with SNB-19 CNS, in the experiment with M14 melanoma, in the experiment with SK-MEL-2 melanoma, in the experiment on SF-295 CNS, in the experiment with MCF7 breast and in the experiment with MDA-MB-435 was more than 100 µM each time. This compound had a TGI with A549 NSCLC of more than 100 µM.
Consider `CCOC(=O)C(Cc1cn(S(=O)(=O)c2ccc(C)cc2)cn1)P(=O)(OCC)OCC` (stereo not given), for which the TGI with DU-145 prostate, with NCI-H23 lung, in the experiment on K-562 leukemia, with HL-60(TB) leukemia, with MOLT-4 leukemia and with HT29 colon was more than 100 µM in each case. The TGI in the experiment on TK-10 renal, in the experiment on SK-MEL-28 melanoma, in the experiment with EKVX NSCLC, in the experiment on MDA-MB-231 breast, with NCI/ADR-RES ovarian and in the experiment on HCC-2998 colon was more than 100 µM in each case. Besides, the TGI in the experiment with SNB-19 CNS, in the experiment on M14 melanoma, in the experiment with SK-MEL-2 melanoma, with SF-295 CNS, in the experiment with MCF7 breast and in the experiment with MDA-MB-435 was more than 100 µM throughout. The same compound returned a TGI with A549 NSCLC of more than 100 µM.
As for `COc1ccc2[nH]c3c(C)c4cnccc4c(C)c3c2c1`, the TGI was 9.93 µM in the experiment with DU-145 prostate; more than 10 µM in the experiment on NCI-H23 lung; more than 10 µM in the experiment with K-562 leukemia; 4.64 µM in the experiment on HL-60(TB) leukemia; more than 10 µM with MOLT-4 leukemia; 3.41 µM in the experiment on HT29 colon. Moreover, the TGI in the experiment on TK-10 renal is more than 10 µM; with SK-MEL-28 melanoma it was 3.44 µM; in the experiment on EKVX NSCLC, more than 10 µM; in the experiment with MDA-MB-231 breast, 6.77 µM; in the experiment with NCI/ADR-RES ovarian it was 6.94 µM; in the experiment with HCC-2998 colon, 3.35 µM. Moreover, the TGI in the experiment on SNB-19 CNS was more than 10 µM; with M14 melanoma, 2.54 µM; with SK-MEL-2 melanoma, more than 10 µM; in the experiment on SF-295 CNS it was more than 10 µM; in the experiment on MCF7 breast it was 3.9 µM; with MDA-MB-435, 2.84 µM. Further, in the experiment on A549 NSCLC, the TGI was determined as 3.65 µM.
For the compound `O=C(NNC(=O)c1ccccc1Cl)c1ccccc1O`, the TGI in the experiment with DU-145 prostate, in the experiment on K-562 leukemia, in the experiment on MOLT-4 leukemia, with HT29 colon, with TK-10 renal and in the experiment on SK-MEL-28 melanoma was more than 100 µM throughout. Also, the TGI in the experiment on A498 renal, with EKVX NSCLC, with MDA-MB-231 breast, with NCI/ADR-RES ovarian, in the experiment with SNB-19 CNS and in the experiment with M14 melanoma was more than 100 µM in each case. Also, the TGI in the experiment on SK-MEL-2 melanoma, with SF-295 CNS, in the experiment with MCF7 breast, with MDA-MB-435 and in the experiment on A549 NSCLC was more than 100 µM each time.
Take `CC1OC(OC2C(O[C@@H]3C[C@@H]4CC[C@@H]5[C@H](CC[C@]6(C)[C@@H]7[C@H](C[C@@H]56)O[C@]5(CC[C@@H](C)CO5)[C@H]7C)[C@@]4(C)C[C@H]3O)OC(CO)C(OC3OC(CO)C(O)C(O)C3O)C2O)C(O)C(O)C1O` (stereo not given in full): the TGI came to 4.29 µM in the experiment on DU-145 prostate; 4.12 µM with NCI-H23 lung; 58.1 µM with K-562 leukemia; 3.83 µM in the experiment on HL-60(TB) leukemia; 3.67 µM in the experiment with MOLT-4 leukemia; 2.88 µM with HT29 colon. Besides, the TGI in the experiment with SK-MEL-28 melanoma turned out to be 3.13 µM; in the experiment with A498 renal, 3.1 µM; in the experiment with EKVX NSCLC, 2.91 µM; with MDA-MB-231 breast, 3.39 µM; with NCI/ADR-RES ovarian, 3.88 µM; with SNB-19 CNS it was 3.66 µM. The TGI in the experiment on M14 melanoma amounted to 3.07 µM; in the experiment on SK-MEL-2 melanoma, 3.28 µM; with SF-295 CNS, 2.92 µM; in the experiment with MCF7 breast, 3.65 µM; with MDA-MB-435 it was 3.16 µM; with A549 NSCLC it was 3.02 µM.
